Data set [1] has as its system U87 cells. Description: Cell viability, Alamar Blue, 7-day incubation, U87. It is filed as cell-based. The note with it: Homo sapiens, U-87 MG, 168 h, MGMT −, error SEM. The procedure:
(§1) Anticancer activity of C8 substituted imidazotetrazines. With a suite of imidazotetrazines in hand, each compound was evaluated against a panel of human GBM cell lines (Table 1a, Table 1b).
Background: Resazurin is reduced to fluorescent resorufin, in cell work by metabolically active cells.

The test system of data set [2] is D54 cells. Put plainly: Cell viability, Alamar Blue, 7-day incubation, D54. It is filed as cell-based. The note with it: Homo sapiens, D54, 168 h, MGMT −, error SEM. On the procedure:
as §1

Data set [3] concerns T98G cells. Put plainly: Cell viability, Alamar Blue, 7-day incubation, T98G. Format: cell-based. The note with it: Homo sapiens, 168 h, MGMT +, error SEM. On the procedure:
as §1

Data set [4] can be described thus: Mouse liver microsome stability assay. The note with it: for Stability (2 h, Microsomes): percentage remaining relative to t0, error SEM, n ≥ 2; for metabolic stability in words: mouse liver microsomes, 2 hours. Format: in vitro ADME. On the procedure: (§2) Liver microsome stability.
(§3) Mouse Liver Microsome Stability Assay. A mixture of PBS (pH 7.4), NADPH regenerating system solution A (Corning Life Sciences), and NADPH regenerating system solution B (Corning Life Sciences) was incubated at 37° C. in a shaking incubator for 5 min. Next, compound was added in DMSO (final concentration 50 μM, 0.5% DMSO) before ice-cold mouse liver microsomes (Thermo Fisher, male CD-1 mice, pooled) were added (final protein concentration of 1 mg/mL). An aliquot was immediately removed, quenched with an equal volume of 100 μM internal standard and 0.5% hydrochloric acid in ice-cold acetonitrile, and centrifuged at 13,000 rcf for 3 min. The supernatant was diluted 1:5 in ddH2O and analyzed by LC-MS. The reactions were incubated at 37° C. in a shaking incubator for 2 h. A second aliquot was removed, quenched and diluted as before and analyzed by LC-MS. The ratio of the areas of analyte:internal standard at 2 hours was compared to the ratio at t0 to determine the percentage of compound remaining. Analysis was performed on an Agilent 6230 LC/MS TOF system with a 1.8 μm, 2.1×50 mm Agilent ZORBAX Eclipse Plus C18 column.
A general note: Liver microsomes are vesicles of endoplasmic reticulum, rich in cytochrome P450 enzymes.

Data set [5] is described as follows: Stability in the absence of microsomes (microsomes replaced with PBS). The note with it: liver microsomes replaced with PBS, percentage remaining relative to t0. Format: physicochemical. On the procedure: as §2, §3
Data set [6] can be described thus: Assessment of hematological toxicity in vivo. The note with it: mouse, in vivo, iv, 125 mg/kg. The procedure: Assessment of hematological toxicity. […] Both lymphocyte (FIG. 3b) and neutrophil (FIG. 8a) concentrations were decreased in TMZ-treated mice. […] Total WBC, lymphocyte, and neutrophil counts for mice treated with these compounds were equivalent to those of control mice.
Assessment of Hematological Toxicity. Male CD-1 IGS mice (n=4 mice/group) were administered a single dose of 125 mg/kg compound intravenously. Imidazotetrazines were formulated with SBEβCD in sterile water immediately prior to injection. Seven days post-treatment, mice were humanely sacrificed and whole blood was collected for assessment of total white blood cells, lymphocytes, neutrophils, platelets, and red blood cells.

Data set [7] relates to T98G cells. Description: cells. It is filed as cell-based. The settings on record: for IC50: Homo sapiens, 7-day incubation. The procedure:
FIG. 4. Imidazotetrazines were added to T98G cells with or without 3 h pre-treatment of O6BG (100 μM). IC50 values after 7-day incubation and fold changes between (+/−) O6BG treatments are reported. […] Error is SEM, n≥3. Statistical significance was determined by using a two-sample Student's t-test (two-tailed test, assuming equal variance).

Setting [8] is: Table 1a, 7 days, n ≥ 3, read-out: IC50 U87.
Setting [9] is: Table 1a, 7 days, read-out: IC50 D54.
Where [10] appears, read: Table 1a, 7 days, read-out: IC50 T98G.
[11] abbreviates: Table 1b, read-out: 7-day IC50 U87.
Setting [12] is: Table 1b, read-out: 7-day IC50 D54.
[13] abbreviates: Table 1b, read-out: 7-day IC50 T98G.

Where two headings read alike, the source gives them in different places. Some results are limits rather than exact numbers.

Consider `Cn1nnc2c(C(=O)O)ncn2c1=O` [Compound 3], for which the IC50 in data set [1] (setting [8]) stood at 320 ± 7 µM; in data set [2] (setting [9]), 130 ± 8 µM; in data set [3] (setting [10]) it was 321 ± 8 µM.

For the compound `CCN(CC)C(=O)c1ncn2c(=O)n(C)nnc12` [Compound 6, N,N-diethyl-3-methyl-4-oxo-3,4-dihydroimidazo[5,1-d][1,2,3,5]tetrazine-8-carboxamide], the IC50 in data set [1] (setting [8]) is 80 ± 30 µM; in data set [2] (setting [9]), 13 ± 2 µM; in data set [3] (setting [10]) it was 160 ± 40 µM. In data set [4], the “Stability (2 h, Microsomes)” value is on record as 81 ± 1%. The “Stability (2 h, No Microsomes)” value in data set [5] is given as 95 ± 2%.

In the case of `CCCCN(CCCC)C(=O)c1ncn2c(=O)n(C)nnc12` [Compound 7, N,N-dibutyl-3-methyl-4-oxo-3,4-dihydroimidazo[5,1-d][1,2,3,5]tetrazine-8-carboxamide], the IC50 was 27 ± 6 µM in data set [1] (setting [8]), 11 ± 2 µM in data set [2] (setting [9]) and 140 ± 20 µM in data set [3] (setting [10]). In data set [4], the “Stability (2 h, Microsomes)” value was 1 ± 1%. Moreover, the “metabolic stability in words” value in data set [4] is on record as “markedly less stability in liver microsomes”. In addition, the “Stability (2 h, No Microsomes)” value in data set [5] was determined as 98 ± 3%.

With `Cn1nnc2c(C(=O)N3CCCC3)ncn2c1=O` [Compound 8, 3-methyl-8-(pyrrolidine-1-carbonyl)imidazo[5,1-d][1,2,3,5]tetrazin-4(3H)-one], the IC50 in data set [1] (setting [8]) was 17 ± 3 µM; in data set [2] (setting [9]) it was 12 ± 4 µM; in data set [3] (setting [10]), 186 ± 5 µM.

Turning to `CCSC(=O)c1ncn2c(=O)n(C)nnc12` [Compound 10, S-ethyl 3-methyl-4-oxo-3,4-dihydroimidazo[5,1-d][1,2,3,5]tetrazine-8-carbothioate], the half-maximal inhibitory concentration (IC50) in data set [1] (setting [8]) was determined as 64 ± 21 µM; in data set [2] (setting [9]), 8 ± 1 µM; in data set [3] (setting [10]), 327 ± 4 µM.

As for `Cn1nnc2c(Br)ncn2c1=O` [Compound 18, 8-bromo-3-methylimidazo[5,1-d][1,2,3,5]tetrazin-4(3H)-one], the IC50 turned out to be 26 ± 7 µM in data set [1] (setting [11]), 20 ± 1 µM in data set [2] (setting [12]) and 60 ± 10 µM in data set [3] (setting [13]).

Regarding `Cn1nnc2c(Cl)ncn2c1=O` [Compound 19, 8-chloro-3-methylimidazo[5,1-d][1,2,3,5]tetrazin-4(3H)-one], the results for the IC50 in data set [1] (setting [8]), in data set [2] (setting [9]) and in data set [3] (setting [10]) were 15 ± 4 µM, 21 ± 4 µM and 60 ± 10 µM, respectively. The “Stability (2 h, Microsomes)” value in data set [4] stood at 91 ± 3%. Moreover, in data set [4], the “metabolic stability in words” value is on record as “generally stable to oxidative metabolism”. For the same compound, in data set [5], the “Stability (2 h, No Microsomes)” value is 91 ± 1%.

As to `Cn1nnc2c(-c3ccc(F)cc3)ncn2c1=O` [Compound 24, 8-(4-fluorophenyl)-3-methylimidazo[5,1-d][1,2,3,5]tetrazin-4(3H)-one], the IC50 in data set [1] (setting [11]) was determined as 13 ± 2 µM; in data set [3] (setting [13]), 18 ± 2 µM.

`Cn1nnc2c(-c3ccc(C(F)(F)F)cc3)ncn2c1=O` [Compound 25, 3-methyl-8-(4-(trifluoromethyl)phenyl)imidazo[5,1-d][1,2,3,5]tetrazin-4(3H)-one]: the concentration for half-maximal inhibition (IC50) in data set [1] (setting [11]) was 16 ± 1 µM; in data set [3] (setting [13]), above 100 µM.

`Cn1nnc2c(-c3ccc(Cl)cc3)ncn2c1=O` [Compound 26, 8-(4-chlorophenyl)-3-methylimidazo[5,1-d][1,2,3,5]tetrazin-4(3H)-one]: the figures for the IC50 in data set [1] (setting [11]), in data set [2] (setting [12]) and in data set [3] (setting [13]) were 9 ± 1 µM, 7 ± 1 µM and 19 ± 3 µM, respectively.

Turning to `Cc1cnc(-c2ncn3c(=O)n(C)nnc23)o1` [Compound 27, 3-methyl-8-(5-methyloxazol-2-yl)imidazo[5,1-d][1,2,3,5]tetrazin-4(3H)-one], in data set [6], the “Cohort weight 7 days Post” value was 31.6 ± 0.3 g. For the same compound, the “myelosuppression / white blood cell effect” value in data set [6] is reported as “did not produce myelosuppression”. Besides, the IC50 in data set [7] (3 h pre-treatment with O6BG (100 μM)) was found to be 5 ± 1 µM; in data set [7] (168 h, without O6BG), 100 ± 20 µM; in data set [1] (setting [8]), 27 ± 4 µM; in data set [2] (setting [9]) it was 9 ± 1 µM; in data set [3] (setting [10]) it was 100 ± 20 µM. Besides, the “Fold Change” value in data set [7] (between IC50 (+/−) O6BG) came to 20.

Take `Cn1nnc2c(C(N)=S)ncn2c1=O` [Compound 28, 3-methyl-4-oxo-3,4-dihydroimidazo[5,1-d][1,2,3,5]tetrazine-8-carbothioamide]: the IC50 in data set [1] (setting [8]) is 9 ± 1 µM; in data set [2] (setting [9]), 8 ± 1 µM; in data set [3] (setting [10]) it was 31 ± 4 µM.

The IC50 is the concentration needed to halve the response being measured.

The values are drawn from patent US12234240B2, “Substituted imidazo[5,1-d][1,2,3,5]tetrazines for the treatment of cancer” (The Board of Trustees of the University of Illinois, priority 2018, dated 2025).
